What follows are compounds tested on batrachotoxin (BTX) binding site of the sodium channel (assay: Affinity for the batrachotoxin (BTX) binding site of the sodium channel, [3H]-batrachotoxinin A20 α-benzoate, rat cerebrocortex synaptosomes). Settings: test concentration not given.

In order of falling “BTX inhibition (rat) % inhibition” value:
1. O=C(NCCN1CCCC1)c1noc2c1CN(C(=O)COc1cccc(Cl)c1)CC2 [Example 155, 5-(2-(3-chlorophenoxy)acetyl)-N-(2-(pyrrolidin-1-yl)ethyl)-4,5,6,7-tetrahydroisoxazolo[4,5-c]pyridine-3-carboxamide]  64%
2. COCCNC(=O)c1noc2c1CN(C(=O)c1ccc(C(F)(F)F)c(F)c1)CC2 [Example 153, 5-(3-fluoro-4-(trifluoromethyl)benzoyl)-N-(2-methoxyethyl)-4,5,6,7-tetrahydroisoxazolo[4,5-c]pyridine-3-carboxamide]  28%
3. O=C(Nc1ccccc1)c1noc2c1CN(C(=O)c1ccccc1F)CC2 [Example 156, 5-(2-fluorobenzoyl)-N-phenyl-4,5,6,7-tetrahydroisoxazolo[4,5-c]pyridine-3-carboxamide]  26%
4. Cc1ccc(S(=O)(=O)N2CCc3onc(C(=O)NCc4ccc(S(N)(=O)=O)cc4)c3C2)cc1 [Example 157, N-(4-sulfamoylbenzyl)-5-tosyl-4,5,6,7-tetrahydroisoxazolo[4,5-c]pyridine-3-carboxamide]  17%
5. COc1ccc(NC(=O)N2CCc3onc(C(=O)NCc4ccc(S(N)(=O)=O)cc4)c3C2)cc1 [Example 154, N^5-(4-methoxyphenyl)-N^3-(4-sulfamoylbenzyl)-6,7-dihydroisoxazolo[4,5-c]pyridine-3,5(4H)-dicarboxamide]  4%
